What was measured:
[1] = tested on: MDA-MB-231 cells; assay: Transwell migration assay; format: cell-based, human; conditions: MDA-MB-231, 400 nM, 24 hours migration
Method: (§1) FIGS. 13A, 13B and 13C. Effect of aptamer apMNKQ2 on the migration and invasion of breast cell lines. The three lines of study were seeded in 6-well plates at a density of 2.5×10^5 cells/well and transfected at 24 hours with apMNKQ2 at the established working concentrations. The cell lines were deprived of serum after 6 hours and collected and re-seeded (4×10^4 cells/well) after 24 hours in a transwell […], in order to perform migration and invasion assays, respectively. At 24 hours, the membranes of the transwell are stained with Hoechst and cells that have gone through the membranes are quantified using fluorescence microscopy (FIG. 13A). The boxes (FIGS. 13B and 13C) represent the mean±the maximum and minimum of 4-5 independent experiments (*p<0.05, **p<0.01, and ***p<0.001 with respect to the control aptamer AT).
(§2) Cell migration and invasion assays were performed using transwell (Corning, USA). The cells, previously transfected and incubated for 16 hours, were deprived of serum for 18 hours. After that time, they were collected, counted, and reseeded 4×10^4 cells in 300 μl of a serum-free complete medium inside the transwell (migration) or a transwell on which a layer of 100 μL of Matrigel (Corning, USA) (invasion) had previously been polymerized. […] Finally, two washes in PBS were performed, and 5 photographs of each membrane of the transwell were taken using a fluorescence microscope (Olympus IX70). The number of cells was analyzed using the imageJ program.
(§3) To analyze the effect of the aptamer on cell migration, experiments were carried out using transwells instead of the wound healing technique. […] At 18 hours, 40,000 cells are collected, counted, and seeded in small “baskets” in a serum-free medium, and these baskets are immersed in the well of the plate with complete serum, such that the serum acts as a chemoattractant and the cells migrate from the basket to the well, going through the membrane of the transwell. […]

[2] = tested on: MCF7 cells; assay: Transwell migration assay; format: cell-based, human; conditions: MCF7, 150 nM, 24 hours migration
Method: as §1, §2, §3

[3] = tested on: MDA-MB-468 cells; assay: Transwell migration assay; format: cell-based, human; conditions: MDA-MB-468, 50 nM, 24 hours migration
Method: as §1, §2, §3

[4] = tested on: MDA-MB-231 cells; assay: Cell viability by trypan blue exclusion; format: cell-based, human; conditions: MDA-MB-231, 400 nM, 24 hours after transfection, vs control aptamer AT
Method: (§4) FIG. 9. Cell viability analysis by trypan blue exclusion. MCF7, MDA-MB-231, and MDA-MB-468 cells from different experiments were collected 24 hours after transfection, diluted 1:10 in trypan blue, and counted in a TC20 counter (BioRad, USA). The boxes represent the mean±the maximum and minimum of 12-14 independent experiments (**p<0.01, and ***p<0.001 with respect to the control aptamer AT). Trypan blue exclusion. Cells (live and dead) were collected in their corresponding medium, trypan blue (Sigma-Aldrich, USA) was added, and the cells were counted using the TC20 counter (BioRad, USA). Living cells are those which exclude the dye. The results were expressed as the number of living cells/mL. The cell lines were then transfected with the previously established concentrations and the number of living cells was determined 24 hours after transfection with […]2 or with the control aptamer AT by means of trypan blue exclusion.

[5] = tested on: MCF7 cells; assay: Cell viability by trypan blue exclusion; format: cell-based, human; conditions: MCF7, 150 nM, 24 hours after transfection, vs control aptamer AT
Method: as §4

[6] = tested on: MDA-MB-468 cells; assay: Cell viability by trypan blue exclusion; format: cell-based, human; conditions: MDA-MB-468, 50 nM, 24 hours after transfection, vs control aptamer AT
Method: as §4

[7] = tested on: 4T1 cells; assay: MTT activity assay in 4T1 cells; format: cell-based, mouse; conditions: 4T1 cells, 0, 250, 500 and 1000 nM, 48 hours
Method: (§5) FIG. 21A-21E. In vivo efficacy of apMNKQ2 in a mouse metastatic model with an orthotopic xenograft of 4T1 cells. (A) Effect of apMNKQ2 aptamer on the proliferation of 4T1 cells (mouse breast tumor line). 4T1 cells were seeded in p96 at a density of 1.5×10^3 cells/well. […] The graph (FIG. 21A) represents the means±SEM of 3 independent experiments. (B) Effect of apMNKQ2 aptamer on migration and invasion of 4T1 cells. Cells were seeded in p6 at a density of 2×10^5 cells/well and transfected with 500 nM apMNKQ2 at 24 hours. At 6 hours they were deprived of serum, and after 24 hours they were collected and re-seeded (4×10^4 cells/well) in a transwell with and without matrigel, to perform migration and invasion tests, respectively. At 24 hours (migration) or 48 h (invasion), the transwell membranes were stained with Hoechst and the cells that had passed through the fluorescence microscopy were quantified. Values (FIG. 21B) represent the mean±SEM of 2-3 independent experiments. In vivo efficacy of apMNKQ2 in a mouse metastatic model with an orthotopic xenograft of 4T1 cells. […] The number of metastases is analyzed by the reverse staining method (with Chinese ink) and the metastases grouped according to their size in four groups (0.5, 1, 2 and >2). […]
MTT activity. […] After 48 hours, the reduction of MTT was determined by means of spectrophotometry in Infinite F200 (TECAN, Switzerland) at 540 nm.

[8] = tested on: 4T1 cells; assay: Transwell migration assay in 4T1 cells; format: cell-based, mouse; conditions: 500 nM, 24 hours migration
Method: as §5, with “At 6 hours they were deprived of serum, and after 24 hours they were collected and re-seeded (4×10^4 cells/well) in a transwell with and without matrigel, to perform migration and invasion tests, respectively.” left out, “quantified.” for “quantified. Values (FIG. 21B) represent the mean±SEM of 2-3 independent experiments. In vivo efficacy of apMNKQ2 in a mouse metastatic model with an orthotopic xenograft of 4T1 cells.”
as §2, with “The cells, previously transfected and incubated for 16 hours, were deprived of serum for 18 hours.” left out, “The number of cells was analyzed using the imageJ program.” left out

Q: “5′TGGGGTGGGCGGGCGGGGGTGGGGGTGGT-3′ (DNA, backbone and methylation of C not given here; further chemistry not fully specified) [apMNKQ2]” was tested. Which “inhibition of migration (transwell)” value [1] did it give?
A: in a statistically significant manner

Q: What about the “inhibition of migration (transwell)” value [2] of the same substance?
A: in a statistically significant manner

Q: And the “inhibition of migration (transwell)” value [3]?
A: capable of inhibiting migration

Q: And the “total number of living cells (trypan blue exclusion)” value (shortened to “total number of living cells”) [4]?
A: very slight drop

Q: What about the “total number of living cells” value [5] of the same substance?
A: significant drop

Q: And the “total number of living cells” value [6]?
A: significant drop

Q: And the “cell proliferation as measured by MTT activity” value [7]?
A: does not affect cell proliferation

Q: And the “migration of 4T1 cells” value [8]?
A: significantly decrease

From US12492403B2, “Aptamers and the use thereof in the treatment of cancer” (FUNDACIÓN PARA LA INVESTIGACIÓN BIOMÉDICA DEL HOSPITAL …, priority 2018, dated 2025)
